In PMC4937660, “In vitro evaluation of the effects of 4-aminopyridine on cytochrome P450 enzymes” (Journal of Drug Assessment, 2013):

Tested on: T1, CYP3A4/5
T1 construct: native enzymes in pooled human liver microsomes (16 samples, XenoTech); read out by testosterone 6beta-hydroxylation and midazolam 1'-hydroxylation
Experiment: testosterone 6beta-hydroxylation in human liver microsomes, HPLC-MS/MS
Type: biochemical
Conditions: direct inhibition, no pre-incubation; testosterone 100 μM (about Km); NADPH-generating system, pH 7.4, 37 °C; read-out: Direct inhibition; 0-min Pre-incubation / IC50
Source text: testosterone 6beta-hydroxylation in human liver microsomes, HPLC-MS/MS on CYP3A4/5

Nc1ccncc1 [4-AP]
IC50: > 30 µM
